# Reference: paper PMC9718554, “Discovery of a fragment hit compound targeting D-Ala:D-Ala ligase of bacterial peptidoglycan biosynthesis” (Journal of Enzyme Inhibition and Medicinal Chemistry, 2022)
# Like-named read-outs stand apart in the source and are kept apart here.
# What was measured:
# [1] = target: T1, E. coli DdlB enzyme (D-alanine:D-alanine ligase) (Escherichia coli, UniProt P07862); assay: biochemical; settings: read-out: DdlB RA; for remaining activity at 1700 µM: tested concentration 1.7 mM; for remaining activity at 2100 µM: tested concentration 2.1 mM; for remaining activity at 1900 µM: tested concentration 1.9 mM; for remaining activity at 2000 µM: tested concentration 2.0 mM; for remaining activity at 1800 µM: tested concentration 1.8 mM; for remaining activity at 2200 µM: tested concentration 2.2 mM
# T1 construct: made in house; host or cells: E. coli
# [2] = Solubility at tested concentrations in fragment library screening; type: physicochemical
# Source text: (§1) Supplement IENZ_A_2149745_SM2502.zip/DDlB_CDR05_SI_20221103.xlsx, sheet "Fragment library screening" | column: Solubility at tested concentrations
# [3] = Solubility at tested concentrations in the fragment library screening; type: physicochemical
# Source text: as §1
compound,measurement,setting,value
COc1cccc(NC2=NS(=O)(=O)c3ccccc32)c1 [Compound 8005-1580],remaining activity at 1700 µM,[1]; residual activity,50%
same,Solubility at tested concentrations,[2]; tested concentration 1.7 mM,not soluble
CN1CCN(S(=O)(=O)c2cccc3cccnc23)CC1 [Compound 8006-7667],remaining activity at 2100 µM,[1]; residual activity,60%
same,Solubility at tested concentrations,[2]; tested concentration 2.1 mM,not soluble
OC1CCCc2c1[nH]c1ccc(Br)cc21 (centres unmarked) [Compound 8010-6263],remaining activity at 1900 µM,[1]; residual activity,29%
same,Solubility at tested concentrations,[2]; tested concentration 1.9 mM,not soluble
CN(C(=O)c1cc[nH]n1)C1CC(C)(C)N(C)C(C)(C)C1 [Compound 8013-1135],remaining activity at 2000 µM,[1]; residual activity,-1.26%
same,Solubility at tested concentrations,[2]; tested concentration 2.0 mM,not soluble
O=C1COc2ccccc2N1Cc1ccc2c(c1)OCO2 [Compound 8018-5756],remaining activity at 1800 µM,[1]; residual activity,103%
same,Solubility at tested concentrations,[2]; tested concentration 1.8 mM,not soluble
CCc1cc(C(=O)N2CC3(C)CC2CC(C)(C)C3)no1 (centres unmarked) [Compound C226-2780],remaining activity at 2200 µM,[1]; residual activity,25%
same,Solubility at tested concentrations,[2]; tested concentration 2.2 mM,not soluble
COC(=O)c1cc2occc2n1Cc1ccccc1Cl [Compound C777-0071],remaining activity at 1700 µM,[1]; residual activity,82%
same,Solubility at tested concentrations,[2]; tested concentration 1.7 mM,not soluble
Cc1ccccc1N(C)C(=O)Cc1noc2ccccc12 [Compound E207-0386],remaining activity at 2100 µM,[1]; residual activity,102%
same,Solubility at tested concentrations,[2]; tested concentration 2.1 mM,not soluble
O=c1c(NCc2ccco2)c(-c2ccccc2)c1=O [Compound E470-0461],remaining activity at 2000 µM,[1],137%
same,Solubility at tested concentrations,[3]; tested concentration 2.0 mM,not soluble
Cc1cccc(Nc2c(-c3ccccc3)c(=O)c2=O)c1 [Compound E470-0476],remaining activity at 1900 µM,[1],43%
same,Solubility at tested concentrations,[3]; tested concentration 1.9 mM,not soluble
O=c1c(NCCN2CCCCCC2)c(-c2ccccc2)c1=O [Compound E470-0490],remaining activity at 1700 µM,[1],88%
same,Solubility at tested concentrations,[3]; tested concentration 1.7 mM,not soluble
CCCNc1c(-c2ccc(C(C)C)cc2)c(=O)c1=O [Compound E511-0830],remaining activity at 1900 µM,[1],101%
same,Solubility at tested concentrations,[3]; tested concentration 1.9 mM,not soluble
CCc1ccc(C2Nc3ccccc3S(=O)(=O)N2)cc1 (centres unmarked) [Compound F475-0262],remaining activity at 2100 µM,[1]; residual activity,68%
same,Solubility at tested concentrations,[2]; tested concentration 2.1 mM,not soluble
Cc1cc2nc(COC(=O)c3ccccc3)cc(=O)n2o1 [Compound G265-0746],remaining activity at 1800 µM,[1],-1%
same,Solubility at tested concentrations,[3]; tested concentration 1.8 mM,not soluble
CC1c2cccn2CCN1C(=O)Nc1ccccc1Cl (centres unmarked) [Compound G551-0008],remaining activity at 1700 µM,[1]; residual activity,112%
same,Solubility at tested concentrations,[2]; tested concentration 1.7 mM,not soluble
O=C(NCCc1ccco1)C1COc2ccccc2C1 (centres unmarked) [Compound G668-0290],remaining activity at 2200 µM,[1]; residual activity,70%
same,Solubility at tested concentrations,[2]; tested concentration 2.2 mM,not soluble
O=C(Nc1ccccc1F)NC1COc2ccccc2C1 (centres unmarked) [Compound G765-0058],remaining activity at 1700 µM,[1]; residual activity,93%
same,Solubility at tested concentrations,[2]; tested concentration 1.7 mM,not soluble
Cc1ccccc1-n1nnnc1C1(N(C)C)CCCC1 [Compound J034-0206],remaining activity at 2200 µM,[1]; residual activity,91%
same,Solubility at tested concentrations,[2]; tested concentration 2.2 mM,not soluble
O=C(O)c1cc(-c2ccc3ccccc3c2)[nH]n1 [Compound R052-2028],remaining activity at 2100 µM,[1],50%
same,Solubility at tested concentrations,[3]; tested concentration 2.1 mM,not soluble
O=C(O)c1cnc2ccc(F)cc2c1O [Compound Y042-3098],remaining activity at 2400 µM,[1]; tested concentration 2.4 mM,53%
same,Solubility at tested concentrations,[3]; tested concentration 2.4 mM,not soluble
O=C(O)c1cnc2cc(Cl)ccc2c1O [Compound Y042-3116],remaining activity at 2200 µM,[1],44%
same,Solubility at tested concentrations,[3]; tested concentration 2.2 mM,not soluble
CCCCc1ccc2ncc(C(=O)O)c(O)c2c1 [Compound Y044-2907],remaining activity at 2000 µM,[1],85%
same,Solubility at tested concentrations,[3]; tested concentration 2.0 mM,not soluble
NS(=O)(=O)c1ccc(NC(=O)C2CCCC2)cc1 [Compound Y205-5953],remaining activity at 1900 µM,[1],62%
same,Solubility at tested concentrations,[3]; tested concentration 1.9 mM,not soluble
Cc1cccc(CC(=O)Nc2cccc(C(=O)O)c2)c1 [Compound Y206-6127],remaining activity at 1900 µM,[1],58%
same,Solubility at tested concentrations,[3]; tested concentration 1.9 mM,not soluble
O=C(O)c1cnn2c(-c3ccco3)ccnc12 [Compound Y504-8728],remaining activity at 2200 µM,[1],56%
same,Solubility at tested concentrations,[3]; tested concentration 2.2 mM,not soluble
